According to patent publication US20220088195A1, “Prevention or mitigation of T-cell bispecific antibody-related adverse effects” (Hoffmann-La Roche Inc., priority 2020, published 2022):

Key:
CD20+ B cells = experiment: CD19-TCB dependent B cell depletion in blood of humanized NSG mice; format: in vivo; conditions: 0.5 mg/kg CD19-TCB i.v. + 50 mg/kg dasatinib p.o. twice per day
Method: FIG. 32. Timelines and dosing schedule of in vivo experiment assessing effect of dasatinib (50 mg/kg) on CD19-TCB induced cytokine release and B cell depletion in humanized NSG mice. Humanized NSG mice were co-treated with 0.5 mg/kg CD19-TCB (i.v.) and 50 mg/kg dasatinib (p.o.) twice per day. Blood was collected by tail vein bleeding at 1.5 hrs, 6 hrs and 48 hrs after treatment with CD19-TCB. At 72 hrs, blood was collected retro-orbitally, before the termination of the experiment. N=4 mice per group.
FIG. 33. […] Representative flow cytometry dot plots of CD20+ B cells gated among human CD45+ cells in the blood (48 hrs) of animals treated with vehicle (A), 0.5 mg/kg CD19-TCB (B), or 0.5 mg/kg CD19-TCB and 50 mg/kg dasatinib (C).
FIG. 34. […] CD20+ B cell count was measured by flow cytometry in the blood of the animals from the experiment described in FIG. 32 at 48 hrs (A) and 72 hrs (B). Mean of n=4 mice+/−SEM. One way ANOVA, Kruskal Wallis test, p-value: 0.1234 (ns), 0.0332 (*), 0.0021 (**), 0.0001 (***), <0.0001 (****).
To verify whether dasatinib can prevent CD19-TCB-induced B cell depletion and cytokine release in vivo, humanized NSG mice were either treated with 0.5 mg/kg CD19-TCB or co-treated with 0.5 mg/kg CD19-TCB and 50 mg/kg dasatinib as illustrated in FIG. 32. To best mimick the pharmacodynamic profile of dasatinib in the clinic and to verify whether the resulting exposure would be sufficient to prevent CD19-TCB-induced T cell cytotoxicity and cytokine release, dasatinib was given per os twice per day.
At 48 hrs and 72 hrs, mice were bled and the CD20+ B cell count was measured by flow cytometry (FIG. 33). […] The half-life of dasatinib in blood of mice being around 6 hrs, the exposure of dasatinib was probably not sufficient to durably prevent CD19-TCB-induced T cell cytotoxicity, leading to partial activity of CD19-TCB.

MKN45 NLR target cells = experiment: Reversibility killing assay with two and three stimulations (OFF/ON, ON/OFF/ON), MKN45 NLR + CEA-TCB, Incucyte; format: cell-based, human
Method: FIG. 16. In vitro killing assay set-up and timelines. PBMCs were stimulated on MKN45 NLR (E:T=10:1) target cells with 1 nM CEA-TCB for 96 hours. Activated PBMCs were washed and restimulated on new MKN45 NLR target cells (E:T=10:1) with 1 nM CEA-TCB in the presence of 25 nM dasatinib for 72 hours. Activated PBMCs were washed to remove dasatinib and restimulated on new MKN45 NLR target cells (E:T=10:1) with 1 nM CEA-TCB (“ON/OFF/ON”, see upper row of table), or vice versa (“OFF/ON/OFF”, see lower row of table). Killing was followed by Incucyte®.
FIG. 17. Real time killing of MKN45 NLR target cells by CEA-TCB in the presence of 25 nM dasatinib (0-72 h) upon first stimulation and in the absence of 25 nM dasatinib (96-170 h) upon restimulation, in the assay of FIG. 16 (“OFF/ON”).
FIG. 19. Real time killing of MKN45 NLR target cells by CEA-TCB in the assay of FIG. 16 (“ON/OFF/ON”).
FIG. 21. CEA-TCB mediated target cell killing. (A) PBMCs were stimulated on MKN45 NLR (E:T=10:1) target cells with 1 nM CEA-TCB for 96 hours in the presence and absence of dasatinib. (B) Activated PBMCs were washed to remove dasatinib and restimulated on new MKN45 NLR target cells (E:T=10:1) with 1 nM CEA-TCB. Killing was followed by Incucyte®.
We then verified if dasatinib's effect is reversible upon its removal. Therefore we set-up a killing assay with two and three stimulations in the presence and absence of dasatinib and followed the killing kinetics using an Incucyte® system (FIG. 16). After each stimulation, effector cells were washed and re-stimulated on fresh MKN45 NLR target cells with 1 nM CEA TCB in the presence and absence of dasatinib allowing to mimic OFF/ON switch and ON/OFF/ON switch.
Lastly, we evaluated if the effect of dasatinib was reversible on activated T cells. Consequently, we supplemented the media with 25 nM dasatinib upon the second stimulation with 1 nM CEA-TCB to prevent killing from activated T cells and then removed the dasatinib upon third stimulation with 1 nM CEA-TCB to verify if killing would be restored. […] We concluded that the effect of dasatinib in the prevention of T cell activation and cytotoxicity is reversible.
For T-cell engaging antibodies, cytokine release peaks are higher upon the first treatment than after subsequent treatments. We were curious to see if low doses of dasatinib could prevent cytokine release while minimally affecting TCB-efficacy upon first stimulation. In killing assays as described in FIG. 16, the cytokine levels upon first treatment with 1 nM CEA-TCB in the presence of 6.25 nM and 12.5 nM dasatinib and upon second treatment with 1 nM CEA-TCB in the absence of dasatinib were measured in the supernatants. […] Its removal upon second stimulation may also balance the cytokine release and restore TCB-induced cytotoxicity due to the reversibility properties of dasatinib.

SUDLH-8 tumor cells = experiment: Killing assay, PBMCs + CTV labelled SUDLH-8 cells + CD19-TCB, flow cytometry 24 hrs; format: cell-based, human; conditions: 100 nM dasatinib, monohydrate
Method: FIG. 26. In vitro killing assay set-up. PBMCs were co-cultured with CellTrace™ Violet (CTV)-labelled SUDLH-8 tumor cells (E:T=10:1) and escalating concentrations of CD19-TCB in the presence and absence of 100 nM dasatinib.
FIG. 27. […] The killing of SUDLH-8 tumor cells was measured by flow cytometry using a Live Dead Near InfraRed (NIR) dye allowing for exclusion of dead cells (24 hrs) in the assay described in FIG. 26. Mean of n=3 donors+SD. One way ANOVA, Friedman test, p-value: 0.1234 (ns), 0.0332 (*), 0.0021 (**), 0.0001 (***), <0.0001 (****).
The killing of CTV labelled SUDLH-8 cells was measured by flow cytometry using a Live/Dead Near Infra Red (NIR) dye. […] The expression of CD69 and CD25 were measured on CD4+ (FIG. 28) and CD8+(FIG. 29) T cells by flow cytometry as a readout for T cell activation. […] Lastly, the cytokine levels were analyzed in the supernatants of the assay by Luminex to evaluate the effect of dasatinib on CD19-TCB-induced cytokine release (FIGS. 30 and 31).

[1] = test system: IL-2, TNF-α, IFN-γ and IL-6; experiment: CD19-TCB induced serum cytokine release in humanized NSG mice (Luminex); format: in vivo; conditions: 1.5 and 6 hrs post treatment, 50 mg/kg dasatinib p.o., monohydrate
Method: Serum was collected from blood samples collected 1.5 hrs post treatment with CD19-TCB in the experiment described in FIG. 32. The levels of IL-2 (A), TNF-α (B), IFN-γ (C) and IL-6 (D) are measured by Luminex. Mean of n=4 mice+/−SEM. One way ANOVA, Kruskal Wallis test, p-value: 0.1234 (ns), 0.0332 (*), 0.0021 (**), 0.0001 (***), <0.0001 (****).
Serum is collected from blood samples collected 6 hrs post treatment with CD19-TCB in the experiment described in FIG. 32. The levels of IL-2 (A), TNF-α (B), IFN-γ (C) and IL-6 (D) are measured by Luminex. Mean of n=4 mice+/−SEM. One way ANOVA, Kruskal Wallis test, p-value: 0.1234 (ns), 0.0332 (*), 0.0021 (**), 0.0001 (***), <0.0001 (****).
Lastly, mice were bled 1.5 and 6 hrs post treatment with CD19-TCB and dasatinib to collect serum for cytokine measurements by Luminex (FIGS. 35 and 36).

Cc1nc(Nc2ncc(C(=O)Nc3c(C)cccc3Cl)s2)cc(N2CCN(CCO)CC2)n1 [dasatinib, N-(2-chloro-6-methylphenyl)-2-[[6-[4-(2-hydroxyethyl)-1-piperazinyl]-2-methyl-4-pyrimidinyl]amino]-5-thiazole carboxamide monohydrate]
killing of CD20+ B cells by CD19-TCB (B cell count in blood) (CD20+ B cells; 48 hrs, listed as Dasatinib, monohydrate): prevents CD19-TCB dependent B cell depletion until 48 hrs post treatment
killing of CD20+ B cells by CD19-TCB (B cell count in blood) (CD20+ B cells; 48 hrs, monohydrate): prevented killing
killing of CD20+ B cells by CD19-TCB (B cell count in blood) (CD20+ B cells; 72 hrs): partially restored
killing induced by 1 nM CEA-TCB during first stimulation (MKN45 NLR target cells; 6.25 nM and 12.5 nM dasatinib): only partially inhibited the killing
killing of MKN45 NLR target cells (OFF/ON) (MKN45 NLR target cells; 25 nM dasatinib during first stimulation, removed for second, 1 nM CEA TCB): killing inhibition which was then reversed upon dasatinib removal
killing of MKN45 cells (ON/OFF/ON) (MKN45 NLR target cells; 25 nM dasatinib upon second stimulation, removed upon third, 1 nM CEA-TCB): inhibited with the addition of 25 nM upon second stimulation and restored upon third stimulation
killing upon removal of dasatinib during second stimulation (MKN45 NLR target cells; after 6.25 nM and 12.5 nM dasatinib in first stimulation): killing was restored
killing of SUDLH-8 tumor cells by CD19-TCB (SUDLH-8 tumor cells): prevented killing
CD19-TCB-induced serum IL-2, TNF-α, IFN-γ and IL-6 ([1]; listed as Dasatinib): prevents CD19-TCB induced cytokine release in vivo
CD19-TCB-induced serum IL-2, TNF-α, IFN-γ and IL-6 [1]: inhibited
